Inconclusive results and toxic doses are left out. The calls were made as follows: active = survival T/C of 150% or more; inactive = T/C below 125% in these data.
Test system: CD2F1 mice, L1210 leukemia ip, survival T/C
Assay: NCI In Vivo Anticancer Drug Screen. Data for tumor model L1210 Leukemia (intraperitoneal) in CD2F1 (CDF1) mice
Conditions: higher = longer survival
How it was run: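 Transplantable tumor in mice; compound-treated vs vehicle-treated groups. Read-out = treated/control ratio of the measured endpoint.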

[1] = endpoint: mean survival time, dose: 100.0 mg/kg/injection, schedule: Q01DX001 (ip), vehicle: saline with Tween-80
[2] = endpoint: mean survival time, dose: 100.0 mg/kg/injection, schedule: Q04DX002 (ip), vehicle: saline with Tween-80
[3] = endpoint: mean survival time, dose: 200.0 mg/kg/injection, schedule: Q01DX001 (ip), vehicle: saline with Tween-80
[4] = endpoint: mean survival time, dose: 200.0 mg/kg/injection, schedule: Q04DX002 (ip), vehicle: saline with Tween-80
[5] = endpoint: mean survival time, dose: 400.0 mg/kg/injection, schedule: Q01DX001 (ip), vehicle: saline with Tween-80
[6] = endpoint: mean survival time, dose: 400.0 mg/kg/injection, schedule: Q04DX002 (ip), vehicle: saline with Tween-80
[7] = endpoint: mean survival time, dose: 100.0 mg/kg/injection, schedule: Q04DX003 (ip), vehicle: saline with Tween-80
[8] = endpoint: mean survival time, dose: 200.0 mg/kg/injection, schedule: Q04DX003 (ip), vehicle: saline with Tween-80
[9] = endpoint: mean survival time, dose: 400.0 mg/kg/injection, schedule: Q04DX003 (ip), vehicle: saline with Tween-80
[10] = endpoint: mean survival time, dose: 25.0 mg/kg/injection, schedule: Q04DX002 (ip), vehicle: saline with Tween-80
[11] = endpoint: mean survival time, dose: 50.0 mg/kg/injection, schedule: Q04DX002 (ip), vehicle: saline with Tween-80

Measured: T/C

O=S(CCCCO)c1ccccc1 (centres undefined)
inactive: endpoint: mean survival time, dose: 50.0 mg/kg/injection, schedule: Q04DX002 (ip), vehicle: saline 101 % of control | endpoint: mean survival time, dose: 100.0 mg/kg/injection, schedule: Q04DX002 (ip), vehicle: saline 104 % of control | endpoint: mean survival time, dose: 200.0 mg/kg/injection, schedule: Q04DX002 (ip), vehicle: saline 96 % of control

CC1(C)OC2C(COC(=O)Oc3ccccc3)OC(n3cnc4c(=O)[nH]cnc43)C2O1 (centres undefined)
inactive: [1] 101 % of control | [2] 102 % of control | [3] 97 % of control | [4] 94 % of control | [5] 94 % of control | [6] 97 % of control

C[n+]1c(-c2cc(C(F)(F)F)cc(C(F)(F)F)c2)c2cc(N)ccc2c2ccc(N)cc21
inactive: endpoint: mean survival time, dose: 6.25 mg/kg/injection, schedule: Q01DX005 (ip), vehicle: saline with Tween-80 106 % of control | endpoint: mean survival time, dose: 12.5 mg/kg/injection, schedule: Q01DX005 (ip), vehicle: saline with Tween-80 101 % of control | endpoint: mean survival time, dose: 25.0 mg/kg/injection, schedule: Q01DX005 (ip), vehicle: saline with Tween-80 106 % of control | endpoint: mean survival time, dose: 50.0 mg/kg/injection, schedule: Q01DX005 (ip), vehicle: saline with Tween-80 111 % of control | endpoint: mean survival time, dose: 100.0 mg/kg/injection, schedule: Q01DX005 (ip), vehicle: saline with Tween-80 116 % of control

CS(=O)(=O)OCC1OC(n2ccc(NC(=O)c3ccccc3)nc2=O)CC1OS(C)(=O)=O (centres undefined)
inactive: endpoint: median survival time, dose: 12.5 mg/kg/injection, schedule: Q01DX005 (ip), vehicle: saline with Tween-80 108 % of control | endpoint: median survival time, dose: 25.0 mg/kg/injection, schedule: Q01DX005 (ip), vehicle: saline with Tween-80 100 % of control | endpoint: median survival time, dose: 50.0 mg/kg/injection, schedule: Q01DX005 (ip), vehicle: saline with Tween-80 107 % of control | endpoint: median survival time, dose: 100.0 mg/kg/injection, schedule: Q01DX005 (ip), vehicle: saline with Tween-80 103 % of control | endpoint: median survival time, dose: 200.0 mg/kg/injection, schedule: Q01DX005 (ip), vehicle: saline with Tween-80 97 % of control

Nc1c(Br)cc(Br)c2c1CCC2
inactive: [2] 94 % of control | [4] 105 % of control | [6] 94 % of control

CCCCNC(=O)C1C2CCC(C2)C1C(=O)NCCCC (centres undefined)
inactive: [7] 98 % of control | [8] 98 % of control | [9] 90 % of control

CC1=CC2C(O)(CC(CO)=CC3C4C(C)(C)C4(OC(=O)c4ccccc4)C(OC(=O)c4ccccc4)C(C)C32O)C1=O (centres undefined)
inactive: endpoint: median survival time, dose: 0.25 mg/kg/injection, schedule: Q01DX009 (ip), vehicle: saline with Tween-80 95 % of control | endpoint: median survival time, dose: 0.5 mg/kg/injection, schedule: Q01DX009 (ip), vehicle: saline with Tween-80 94 % of control | endpoint: median survival time, dose: 1.0 mg/kg/injection, schedule: Q01DX009 (ip), vehicle: saline with Tween-80 94 % of control

CCCCCCCCc1ccc(O)c(Cl)c1
inactive: [7] 94 % of control | [8] 91 % of control | [9] 94 % of control

O=S(=O)(Nc1cccc(NS(=O)(=O)c2ccccc2)n1)c1ccccc1
inactive: [7] 92 % of control | [8] 102 % of control | [9] 92 % of control

CC12C=CC(=O)C=C1CCCC2 (centres undefined)
inactive: endpoint: mean survival time, dose: 12.5 mg/kg/injection, schedule: Q04DX002 (ip), vehicle: saline with Tween-80 96 % of control | [10] 91 % of control | [11] 96 % of control

N=C(N)SCc1c(Cl)c(Cl)c(Cl)c(Cl)c1Cl
inactive: [10] 103 % of control | [11] 98 % of control | [2] 98 % of control

CCOC(=O)N(OCc1ccccc1)P(=O)(N1CC1(C)C)N1CC1(C)C (centres undefined)
inactive: endpoint: mean survival time, dose: 25.0 mg/kg/injection, schedule: Q01DX009 (ip), vehicle: saline with Tween-80 95 % of control | endpoint: mean survival time, dose: 50.0 mg/kg/injection, schedule: Q01DX009 (ip), vehicle: saline with Tween-80 93 % of control | endpoint: mean survival time, dose: 100.0 mg/kg/injection, schedule: Q01DX009 (ip), vehicle: saline with Tween-80 98 % of control

CC(=[C-]C(=O)O)C(=O)O.[NH-]C1CCCCC1[NH-].[Pt]
inactive: endpoint: median survival time, dose: 6.25 mg/kg/injection, schedule: Q04DX003 (ip), vehicle: saline 100 % of control | endpoint: median survival time, dose: 12.5 mg/kg/injection, schedule: Q04DX003 (ip), vehicle: saline 100 % of control | endpoint: median survival time, dose: 25.0 mg/kg/injection, schedule: Q04DX003 (ip), vehicle: saline 102 % of control | endpoint: median survival time, dose: 50.0 mg/kg/injection, schedule: Q04DX003 (ip), vehicle: saline 108 % of control | endpoint: median survival time, dose: 100.0 mg/kg/injection, schedule: Q04DX003 (ip), vehicle: saline 112 % of control

C=C(Br)CNC(=O)CCC
inactive: endpoint: mean survival time, dose: 2.5 mg/kg/injection, schedule: Q01DX009 (ip), vehicle: saline with Tween-80 107 % of control | endpoint: mean survival time, dose: 5.0 mg/kg/injection, schedule: Q01DX009 (ip), vehicle: saline with Tween-80 106 % of control | endpoint: mean survival time, dose: 10.0 mg/kg/injection, schedule: Q01DX009 (ip), vehicle: saline with Tween-80 102 % of control

O=C(O)c1cccc2ccc(Br)cc12
inactive: endpoint: median survival time, dose: 50.0 mg/kg/injection, schedule: Q04DX002 (ip), vehicle: saline with Tween-80 100 % of control | endpoint: median survival time, dose: 100.0 mg/kg/injection, schedule: Q04DX002 (ip), vehicle: saline with Tween-80 100 % of control | endpoint: median survival time, dose: 200.0 mg/kg/injection, schedule: Q04DX002 (ip), vehicle: saline with Tween-80 111 % of control

CCCCC1CCCCC1
inactive: [7] 95 % of control | [8] 100 % of control | [9] 90 % of control

CN(C)N=Nc1ccc(C#N)cc1C(N)=O
inactive: endpoint: mean survival time, dose: 18.8 mg/kg/injection, schedule: Q01DX009 (ip), vehicle: Klucel (hydroxypropylcellulose) (HPC) 106 % of control | endpoint: mean survival time, dose: 37.5 mg/kg/injection, schedule: Q01DX009 (ip), vehicle: Klucel (hydroxypropylcellulose) (HPC) 119 % of control | endpoint: mean survival time, dose: 150.0 mg/kg/injection, schedule: Q01DX009 (ip), vehicle: Klucel (hydroxypropylcellulose) (HPC) 101 % of control

OC1C=CC2CC1C2 (centres undefined)
inactive: [7] 95 % of control | [8] 98 % of control | [9] 98 % of control

Oc1ccc(C(c2ccc(O)cc2)C(Cl)(Cl)Cl)cc1
inactive: endpoint: mean survival time, dose: 100.0 mg/kg/injection, schedule: Q04DX003 (ip), vehicle: Klucel (hydroxypropylcellulose) (HPC) 101 % of control | endpoint: mean survival time, dose: 200.0 mg/kg/injection, schedule: Q04DX003 (ip), vehicle: Klucel (hydroxypropylcellulose) (HPC) 101 % of control | endpoint: mean survival time, dose: 400.0 mg/kg/injection, schedule: Q04DX003 (ip), vehicle: Klucel (hydroxypropylcellulose) (HPC) 93 % of control

O=C(N/N=C\c1ccc([N+](=O)[O-])cc1)c1ccccc1
inactive: [7] 94 % of control | [8] 94 % of control | [9] 92 % of control

CC(=N\NC(=O)c1ccccc1)/C(C)=N/NC(=O)c1ccccc1
inactive: [7] 90 % of control | [8] 86 % of control | [9] 90 % of control

CCC1(C)CCC2C(=CCC3C(C)(C(=O)OC)CCCC23C)C1 (centres undefined)
inactive: [1] 94 % of control | [3] 92 % of control | [5] 94 % of control

NNC(=O)c1ccccc1Cl
inactive: endpoint: mean survival time, dose: 9.5 mg/kg/injection, schedule: Q01DX001 (ip), vehicle: other 97 % of control | endpoint: mean survival time, dose: 19.0 mg/kg/injection, schedule: Q01DX001 (ip), vehicle: other 95 % of control | endpoint: mean survival time, dose: 38.0 mg/kg/injection, schedule: Q01DX001 (ip), vehicle: other 97 % of control

C/C(=N/NC(=O)c1ccccc1)c1ccc(Cl)cc1Cl
inactive: endpoint: mean survival time, dose: 50.0 mg/kg/injection, schedule: Q01DX009 (ip), vehicle: Klucel (hydroxypropylcellulose) (HPC) 89 % of control

O/N=C(/CC(O)(c1ccccc1)c1ccccc1)c1ccccc1
inactive: endpoint: mean survival time, dose: 75.0 mg/kg/injection, schedule: Q01DX001 (ip), vehicle: saline 98 % of control | endpoint: mean survival time, dose: 150.0 mg/kg/injection, schedule: Q01DX001 (ip), vehicle: saline 103 % of control | endpoint: mean survival time, dose: 300.0 mg/kg/injection, schedule: Q01DX001 (ip), vehicle: saline 95 % of control

O=C(O)C(O)C(O)C(O)CO (centres undefined)
inactive: endpoint: mean survival time, dose: 100.0 mg/kg/injection, schedule: Q04DX003 (ip), vehicle: saline 95 % of control | endpoint: mean survival time, dose: 200.0 mg/kg/injection, schedule: Q04DX003 (ip), vehicle: saline 105 % of control | endpoint: mean survival time, dose: 400.0 mg/kg/injection, schedule: Q04DX003 (ip), vehicle: saline 97 % of control

O=c1ccn(Cc2ccc([N+](=O)[O-])cc2)c(=O)[nH]1
inactive: [1] 94 % of control | [3] 90 % of control | [5] 98 % of control

CC1(C)N=C(N)N=C(N)N1c1cccc(/C=C/C=C/c2cccc([N+](=O)[O-])c2)c1
inactive: endpoint: mean survival time, dose: 25.0 mg/kg/injection, schedule: Q04DX003 (ip), vehicle: saline with Tween-80 95 % of control | endpoint: mean survival time, dose: 50.0 mg/kg/injection, schedule: Q04DX003 (ip), vehicle: saline with Tween-80 91 % of control | [7] 89 % of control

CC1=C(C)C2(C)C(C)(O)C(C)(O)C12C (centres undefined)
inactive: endpoint: mean survival time, dose: 18.75 mg/kg/injection, schedule: Q01DX009 (ip), vehicle: saline with Tween-80 98 % of control | endpoint: mean survival time, dose: 37.5 mg/kg/injection, schedule: Q01DX009 (ip), vehicle: saline with Tween-80 93 % of control | endpoint: mean survival time, dose: 75.0 mg/kg/injection, schedule: Q01DX009 (ip), vehicle: saline with Tween-80 96 % of control

— PubChem BioAssay AID256 (DTP/NCI, 2004)
